Results on four compounds are retold here after patent US4026888A, “Certain derivatives of particular 3-thiolated cephalosporins” (priority 1976, dated 1977).

One data set relates to E. coli A9675. The data set is described as follows: Antibiotic activity in nutrient broth (MIC). Format: cell-based. Particulars: derivatives adjusted for BL-S640 content. The source says: Antibiotic Activity In Nutrient Broth
** Dilution of overnight broth culture.
Antibiotic Spectrum Nutrient Broth
Antibiotic Spectrum in Nutrient Broth

A short description of data set [1]: Mouse blood levels after intramuscular administration. Format: in vivo. Particulars: for concentration at 0.25 h / concentration at 0.5 h / concentration at 1 h / concentration at 1.5 h: mouse, blood, im, 10 mg/kg. How it is done:
Mouse Blood Levels After Intramuscular Administration
of 10 mg./kg. Body Weight
The compounds were dissolved in 0.01% phosphate buffer.
Mouse Blood Levels After IM
Administration of 10 mg./kg. Body Weight
The compounds were prepared in 0.01% phosphate
(§1) The compounds were prepared in 0.01% phosphate buffer.

The nature of data set [2]: Urinary recovery after IM administration to rats. Format: in vivo. The conditions noted are these: rat, urine, read-out: Urinary Recovery, Percentage of Administered Dose Recovered; for dose excreted at 6 h: 0-6 hr. The procedure:
Urinary Recovery After IM
Administration of 50 and 10 mg./kg. to Rats
The compounds were prepared in 0.01% phosphate buffer. BL-S640 was used as
Urinary Recovery after IM
Administration of 50 mg./kg. to Rats
as §1

For the next data set, the system named is bacterial spectrum. The data set is described as follows: Antibacterial activity / MIC bacterial spectrum compared with parent. The class given is cell-based. The conditions noted are these: in words. The source says: |Antibiotic Activity In Nutrient Broth
The next data set in a line: Rat blood levels. The class given is in vivo. The conditions noted are these: in words.
A further data set in a line: Water solubility. Format: physicochemical. Particulars: for solubility: read-out: Solubility in water.
A short description of a further data set: Stability of solids. The class given is physicochemical. Particulars: solid; 1 month at 56° C.; read-out: Stability of Solids (loss).
A short description of data set [3]: Stability of aqueous solutions. The class given is physicochemical.
A short description of data set [4]: IR-NMR: cyclic / non cyclic derivative in solution. The class given is physicochemical. Particulars: 70 mg/ml.
Data set [5] is described as follows: Detection in urine (with mouse blood levels). The class given is in vivo. The conditions noted are these: no evidence of the derivative.
For data set [6] the following is noted: for Form in solution by paper strip and liquid chromatography: 0.2 and 1.0 mg./ml. in water.
Protocol: (§2) Paper strip bioautographs were run in the following manner. Samples were dissolved at a concentration of 500 γ/ml. in 0.1M pH 7 phosphate buffer and pH 7 pooled human serum at 500 γ/ml. A 10 μl sample of BL-S640 and the above product were spotted on a 1/2 inch strip of What. No. 1 paper and developed at 27° for 16 hours in a butyl acetate 80, n-butanol 15, acetic acid 40, and water 24 system. The strips were air-dried, and placed on an agar plate seeded with B. subtilis A.T.C.C.
(§3) Samples were chromatographed on a μ Bondapak C18 (Waters Associates) column using a 0.01M sodium acetate pH 4/-methanol 8/2 mobile phase at a flow rate of 0.52 ml./min. Detection was by UV at 354 μm. Samples were dissolved at a concentration of 1 mg./ml. in the mobile phase, 2 μ were injected and BL-S640 was eluted at 18 min. and the aldehyde at 6 min. The quantitation of BL-S640 and 5-formylfuransulfonic acid were made using p-toluene-sulfonic acid as an internal standard.
Where [7] appears, read: Escherichia coli, A9675, inoculum 10^-4, read-out: MIC.
Where [8] appears, read: Example 3, IM 10 mg./kg., average of 3 experiments, read-out: Blood Levels.
[9] abbreviates: Example 3, IM 10 mg./kg., 1 hr, average of 3 experiments, read-out: Blood Levels.
Setting [10] is: Table III, IM 10 mg./kg., 0.01% phosphate buffer, read-out: Mouse Blood Levels.
[11] abbreviates: 50 mg/kg, IM 50 mg./kg., 0-24 hr.
The mark [12] stands for this setting: 50 mg/kg, IM 50 mg./kg., 6-24 hr.
The mark [13] stands for this setting: Example 2, IM 10 mg./kg., 0.01% phosphate buffer, 16 or 32 mice, read-out: Blood Levels.
The mark [14] stands for this setting: Example 2, IM 10 mg./kg., 1 hr, 0.01% phosphate buffer, 16 or 32 mice, read-out: Blood Levels.
The mark [15] stands for this setting: 10 mg/kg, IM 10 mg./kg., 0-24 hr.
Where [16] appears, read: 10 mg/kg, IM 10 mg./kg., 6-24 hr.

In brackets after ≈: the same amount, converted by molar mass. Like-named read-outs stand apart in the source and are kept apart here.

Protocol for physchem: as §2, §3

What is called MIC is the lowest concentration found to suppress growth. Consider `N[C@@H](C(=O)N[C@@H]1C(=O)N2C(C(=O)O)=C(CSc3cnn[nH]3)CS[C@H]12)c1ccc(O)cc1` [BL-S640, 7-[D-α-amino-α-(p-hydroxyphenyl)acetamido]-3-(1,2,3-triazol-5-ylthiomethyl)-3-cephem-4-carboxylic acid, reference compound], for which the MIC in the data set with E. coli A9675 (setting [7]) was 4 µg/mL (≈ 8.65 µM); against E. coli A9675 (inoculum 10^-4), 2 µg/mL (≈ 4.32 µM). Also, the “Blood Levels” value in [1] (Example 2, IM 10 mg./kg., 1 hr, 0.01% phosphate buffer, 16 or 32 mice) was determined as 9.5 µg/mL. Moreover, the values for the concentration at 0.25 h in data set [1] (setting [8]) and in data set [1] (setting [10]) were 12700 ng/mL and 16300 ng/mL, respectively. The concentration at 0.5 h in data set [1] (setting [8]) turned out to be 11500 ng/mL. In data set [1] (setting [9]), the concentration at 1 h was 8000 ng/mL. The results for the concentration at 1.5 h in [1] (setting [8]) and in data set [1] (setting [10]) were 5700 ng/mL and 6300 ng/mL, respectively. In [2] (50 mg/kg, IM 50 mg./kg.), the dose excreted at 6 h worked out at 44.2%. Moreover, the results for the dose excreted at 24 h in data set [2] (setting [11]) and in data set [2] (setting [12]) were 47.5% and 3.3%, respectively.

As usually defined, the solubility is how much of the substance goes into solution per volume. In the case of `O=C(O)C1=C(CSc2cnn[nH]2)CS[C@@H]2[C@H](N3C(=O)[C@@H](c4ccc(O)cc4)NC3c3ccc(S(=O)(=O)O)o3)C(=O)N12` (stereo partly drawn) [BL-S1027], the MIC with E. coli A9675 (setting [7]) was 4 µg/mL (≈ 6.44 µM). Besides, in the data set with bacterial spectrum, the “MIC bacterial spectrum / activity compared with parent” value is on record as “equal to that of BL-S640”. Also, the “Mouse blood levels, intramuscular, compared with BL-S640 propylene glycol adduct” value in data set [1] (intramuscular, in words) is recorded as “approximately equal”. Also, the concentration at 0.25 h worked out at 15400 ng/mL in [1] (setting [13]) and 16100 ng/mL in data set [1] (setting [10]). Moreover, the figures for the concentration at 0.5 h in data set [1] (setting [13]) and in [1] (setting [10]) were 15100 ng/mL and 14800 ng/mL, respectively. Moreover, the concentration at 1 h was found to be 11800 ng/mL in data set [1] (setting [14]) and 11900 ng/mL in data set [1] (Table III, IM 10 mg./kg., 1 hr, 0.01% phosphate buffer, read-out: Mouse Blood Levels). In addition, the values for the concentration at 1.5 h in data set [1] (setting [13]) and in data set [1] (setting [10]) were 8200 ng/mL and 8000 ng/mL, respectively. Besides, in “Rat blood levels” (intramuscular), the “Intramuscular rat blood levels compared with BL-S640” value was “equal to that of BL-S640”. Moreover, the “Oral rat blood levels compared with BL-S640” value in “Rat blood levels” (oral) is “equal to that of BL-S640”. For the same compound, the dose excreted at 6 h in [2] (10 mg/kg, IM 10 mg./kg.) stood at 30.1%; in data set [2] (50 mg/kg, IM 50 mg./kg.), 39.6%. Also, the dose excreted at 24 h in [2] (setting [15]) is 31.8%; in data set [2] (setting [16]) it was 1.7%; in [2] (setting [11]), 42.2%; in [2] (setting [12]), 2.6%. For the same compound, the Solubility in water in the data set “Water solubility” was more than 400 mg/mL. The solubility in “Water solubility” was more than 500 mg/mL. For the same compound, the degraded in “Stability of solids” is less than 10%. In addition, the “Storage of aqueous solutions, loss in activity” value in [3] (250, 25 and 10 mg. BL-S640 activity/ml., 4° C. or room temperature, at least 24 hours) is listed as “no significant loss in activity”. For the same compound, in data set [3] (25,000 mcg./ml., 6° C. (refrigerator)), the “Stability of solution in water: stable (retained full bioactivity)” value came out at 14 days. In addition, in data set [3] (25,000 mcg./ml., room temperature, for at least three days), the “Stability of solution in water” value is listed as “stable (retained full bioactivity) for at least three days”. In addition, the degraded at 24 h in data set [3] (water, 250, 25 and 10 mg./ml. of BL-S640 activity, at least 24 hours at room temperature, read-out: Stability of solutions (loss)) was less than 10%. Moreover, the “non cyclic derivative in solution” value in data set [4] was determined as 20%. The “Form appearing in urine” value in data set [5] was “BL-S640 appeared in urine with no evidence”. Also, the “free BL-S640 by liquid chromatography” value in data set [6] (1 mg./ml. in pH 7 phosphate buffer, 0 time) was determined as 85%. The “Form in solution by paper strip and liquid chromatography” value in [6] is on record as “exists as free BL-S640”.

`O=C(O)COc1ccccc1C1N[C@H](c2ccc(O)cc2)C(=O)N1[C@@H]1C(=O)N2C(C(=O)O)=C(CSc3cnn[nH]3)CS[C@H]12` (stereo partly drawn) [BL-S1048]: the MIC with E. coli A9675 (setting [7]) is 2 µg/mL (≈ 3.2 µM). For the same compound, the concentration at 0.25 h in data set [1] (setting [13]) was found to be 14800 ng/mL. The concentration at 0.5 h in data set [1] (setting [13]) stood at 14100 ng/mL. For the same compound, the concentration at 1 h in [1] (setting [14]) was 10300 ng/mL. Further, the concentration at 1.5 h in [1] (setting [13]) was 7000 ng/mL. For the same compound, the dose excreted at 6 h in data set [2] (10 mg/kg, IM 10 mg./kg.) stood at 21.7%; in [2] (50 mg/kg, IM 50 mg./kg.), 32.3%. The dose excreted at 24 h amounted to 23.7% in [2] (setting [15]), 2% in data set [2] (setting [16]), 34.7% in data set [2] (setting [11]) and 2.4% in [2] (setting [12]). In addition, in data set [6], the “Form in solution by paper strip and liquid chromatography” value is “BL-S640 completely free of the aldehyde”.

On to `O=C(O)C1=C(CSc2cnn[nH]2)CS[C@@H]2[C@H](N3C(=O)[C@@H](c4ccc(O)cc4)NC3c3ccccc3S(=O)(=O)O)C(=O)N12` (stereo partly drawn) [BL-S1055], for which the minimal inhibitory concentration (MIC) with E. coli A9675 (setting [7]) stood at 4 µg/mL (≈ 6.34 µM). In data set [1] (setting [8]), the concentration at 0.25 h is 10300 ng/mL, the concentration at 0.5 h is 9900 ng/mL and the concentration at 1.5 h is 6500 ng/mL. Moreover, the concentration at 1 h in [1] (setting [9]) was 7600 ng/mL. For the same compound, the dose excreted at 6 h in data set [2] (50 mg/kg, IM 50 mg./kg.) was 36.6%. Also, the dose excreted at 24 h in data set [2] (setting [11]) amounted to 39%. Also, the dose excreted at 24 h in [2] (setting [12]) stood at 2.4%. Also, in the data set “Water solubility”, the solubility was more than 400 mg/mL. In addition, the “% Free BL-S640 by liquid chromatography” value in [6] (0 min) came to 64.0%. In “physchem”, the degraded at 1 h stood at 70.5% and the degraded at 2 h was 88%.
